Values of other authors, collected in patent US6472370B1, “Anticonvulsant derivatives useful in treating post traumatic stress disorder” (Ortho-McNeil Pharmaceutical, Inc., priority 1998, dated 2002).
Where two headings read alike, the source gives them in different places.

Experiments:
[1] = tested on: seizures in several rodent models of epilepsy
[2] = tested on: simple and complex partial seizures and secondarily generalized seizures; conditions: clinical trials of human epilepsy; adjunctive therapy or monotherapy
[3] = tested on: kindling seizures; conditions: animal (rodent) model of kindling

For `CC1(C)O[C@@H]2[C@@H](CO[C@@]3(COS(N)(=O)=O)OC(C)(C)O[C@@H]23)O1` [topiramate, 2,3:4,5-bis-O-(1-methylethylidene)-β-D-fructopyranose sulfamate], the block of seizures [1] is listed as “effectively block seizures”, the “efficacy in treating simple and complex partial seizures and secondarily generalized seizures” value [2] is listed as “effective” and the “block of seizures in kindled epilepsy / kindling seizures” value [3] is listed as “effectively block seizures”. The “block of seizures in kindled epilepsy / kindling seizures” value ([3]; listed as Topiramate) was “effective”.
